From PMC12454493, “Insight on novel sulfamoylphenyl pyrazole derivatives as anticancer carbonic anhydrase inhibitors” (Molecular Diversity, 2024)
Values joined by “and” are separate entries in the source; they are usually repeats but may differ in a detail not shown here. Equal values may be shown once.

How the values were obtained:
[1] = tested on: IGROV1; assay: NCI-60 one-dose SRB screen (Ovarian cancer); format: cell-based; details: Homo sapiens, IGROV-1, single dose 10 µM, 48 h, read-out: Growth inhibition percent (GI %)
Method: (§1) The National Cancer Institute (NCI) Developmental Therapeutic Program (www.dtp.nci.nih.gov) selected the 20 novel synthesized compounds 4a-e, 5a-e, 6a-c, 9a-e, 10 and 11 to test for their anticancer activity at a single dose of 10 µM using SRB assay. […] Supplementary Data S3; Table S1 presents the detailed screening results of the most promising compounds. The preliminary screening’s detailed results for the remaining compounds are elucidated in the (Supplementary Data S3; Table S2).
(§2) The guidelines of the Drug Evaluation Branch’s protocol at the NCI in Bethesda served as the basis for the in vitro anticancer screening assays. at one dose 10 µM against a panel of 60 cancer cell lines. The human tumor cell lines used belonged to nine panels: leukemia, melanoma, lung, colon, CNS, ovarian, renal, prostate and breast cancers using the sulforhodamine B (SRB) assay in a 48 h drug exposure protocol.

[2] = tested on: OVCAR-4; assay: NCI-60 one-dose SRB screen (Ovarian cancer); format: cell-based; details: Homo sapiens, single dose 10 µM, 48 h, read-out: Growth inhibition percent (GI %)
Method: as §1, §2

[3] = tested on: OVCAR-5; assay: NCI-60 one-dose SRB screen (Ovarian cancer); format: cell-based; details: Homo sapiens, single dose 10 µM, 48 h, read-out: Growth inhibition percent (GI %)
Method: as §1, §2

[4] = tested on: OVCAR-3; assay: NCI-60 one-dose SRB screen (Ovarian cancer); format: cell-based; details: Homo sapiens, single dose 10 µM, 48 h, read-out: Growth inhibition percent (GI %)
Method: as §1, §2

[5] = tested on: OVCAR-8; assay: NCI-60 one-dose SRB screen (Ovarian cancer); format: cell-based; details: Homo sapiens, single dose 10 µM, 48 h, read-out: Growth inhibition percent (GI %)
Method: as §1, §2

[6] = tested on: SK-OV-3; assay: NCI-60 one-dose SRB screen (Ovarian cancer); format: cell-based; details: Homo sapiens, single dose 10 µM, 48 h, read-out: Growth inhibition percent (GI %)
Method: as §1, §2

[7] = tested on: NCI/ADR-RES; assay: NCI-60 one-dose SRB screen (Ovarian cancer); format: cell-based; details: Homo sapiens, single dose 10 µM, 48 h, read-out: Growth inhibition percent (GI %)
Method: as §1, §2

[8] = tested on: UO-31; assay: NCI-60 one-dose SRB screen (Renal Cancer); format: cell-based; details: Homo sapiens, single dose 10 µM, 48 h, read-out: Growth inhibition percent (GI %)
Method: as §1, §2

[9] = tested on: ACHN; assay: NCI-60 one-dose SRB screen (Renal Cancer); format: cell-based; details: Homo sapiens, single dose 10 µM, 48 h, read-out: Growth inhibition percent (GI %)
Method: as §1, §2

[10] = tested on: CAKI-1; assay: NCI-60 one-dose SRB screen (Renal Cancer); format: cell-based; details: Homo sapiens, single dose 10 µM, 48 h, read-out: Growth inhibition percent (GI %)
Method: as §1, §2

[11] = tested on: 786-0; assay: NCI-60 one-dose SRB screen (Renal Cancer); format: cell-based; details: Homo sapiens, single dose 10 µM, 48 h, read-out: Growth inhibition percent (GI %)
Method: as §1, §2

[12] = tested on: A498; assay: NCI-60 one-dose SRB screen (Renal Cancer); format: cell-based; details: Homo sapiens, single dose 10 µM, 48 h, read-out: Growth inhibition percent (GI %)
Method: as §1, §2

[13] = tested on: TK-10; assay: NCI-60 one-dose SRB screen (Renal Cancer); format: cell-based; details: Homo sapiens, single dose 10 µM, 48 h, read-out: Growth inhibition percent (GI %)
Method: as §1, §2

[14] = tested on: RXF 393; assay: NCI-60 one-dose SRB screen (Renal Cancer); format: cell-based; details: Homo sapiens, single dose 10 µM, 48 h, read-out: Growth inhibition percent (GI %)
Method: as §1, §2

[15] = tested on: HOP-92; assay: NCI-60 one-dose SRB screen (Non-Small Cell Lung Cancer); format: cell-based; details: Homo sapiens, single dose 10 µM, 48 h, read-out: Growth inhibition percent (GI %)
Method: as §1, §2

[16] = tested on: HOP-62; assay: as above; format: cell-based; details: Homo sapiens, single dose 10 µM, 48 h, read-out: Growth inhibition percent (GI %)
Method: as §1, §2

[17] = tested on: NCI-H226; assay: as above; format: cell-based; details: Homo sapiens, single dose 10 µM, 48 h, read-out: Growth inhibition percent (GI %)
Method: as §1, §2

[18] = tested on: EKVX; assay: as above; format: cell-based; details: Homo sapiens, single dose 10 µM, 48 h, read-out: Growth inhibition percent (GI %)
Method: as §1, §2

[19] = tested on: NCI-H460; assay: as above; format: cell-based; details: Homo sapiens, single dose 10 µM, 48 h, read-out: Growth inhibition percent (GI %)
Method: as §1, §2

[20] = tested on: A549/ATCC; assay: as above; format: cell-based; details: Homo sapiens, single dose 10 µM, 48 h, read-out: Growth inhibition percent (GI %)
Method: as §1, §2

[21] = tested on: NCI-H23; assay: as above; format: cell-based; details: Homo sapiens, single dose 10 µM, 48 h, read-out: Growth inhibition percent (GI %)
Method: as §1, §2

[22] = tested on: NCI-H322M; assay: as above; format: cell-based; details: Homo sapiens, single dose 10 µM, 48 h, read-out: Growth inhibition percent (GI %)
Method: as §1, §2

[23] = tested on: NCI-H522; assay: as above; format: cell-based; details: Homo sapiens, single dose 10 µM, 48 h, read-out: Growth inhibition percent (GI %)
Method: as §1, §2

[24] = biological target: hCA XII (Homo sapiens, UniProt O43570); assay: CA inhibitory activity, spectrophotometric p-NPA assay; format: biochemical; details: p-NPA substrate, pH 7.5, 25 °C, triplicate; read-out: IC50 (µM) ± SD hCA XII
hCA XII, sequence (O43570 25-354): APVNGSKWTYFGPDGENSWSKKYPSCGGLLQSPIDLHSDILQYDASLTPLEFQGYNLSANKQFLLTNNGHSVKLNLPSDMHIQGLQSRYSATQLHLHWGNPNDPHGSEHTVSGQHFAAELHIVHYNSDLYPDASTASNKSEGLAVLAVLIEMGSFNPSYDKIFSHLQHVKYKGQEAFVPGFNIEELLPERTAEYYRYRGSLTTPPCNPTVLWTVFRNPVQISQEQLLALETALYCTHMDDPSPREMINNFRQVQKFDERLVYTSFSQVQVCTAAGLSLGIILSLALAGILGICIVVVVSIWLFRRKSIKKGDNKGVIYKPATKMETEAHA

[25] = tested on: MDA-MB-468; assay: NCI-60 one-dose SRB screen (Breast Cancer); format: cell-based; details: Homo sapiens, single dose 10 µM, 48 h, read-out: Growth inhibition percent (GI %)
Method: as §1, §2

[26] = tested on: BT-549; assay: NCI-60 one-dose SRB screen (Breast Cancer); format: cell-based; details: Homo sapiens, single dose 10 µM, 48 h, read-out: Growth inhibition percent (GI %)
Method: as §1, §2

[27] = tested on: T-47D; assay: NCI-60 one-dose SRB screen (Breast Cancer); format: cell-based; details: Homo sapiens, T47D, single dose 10 µM, 48 h, read-out: Growth inhibition percent (GI %)
Method: as §1, §2

[28] = tested on: MCF-7; assay: NCI-60 one-dose SRB screen (Breast Cancer); format: cell-based; details: Homo sapiens, MCF7, single dose 10 µM, 48 h, read-out: Growth inhibition percent (GI %)
Method: as §1, §2

[29] = tested on: HS 578T; assay: NCI-60 one-dose SRB screen (Breast Cancer); format: cell-based; details: Homo sapiens, single dose 10 µM, 48 h, read-out: Growth inhibition percent (GI %)
Method: as §1, §2

[30] = tested on: MDA-MB-231/ATCC; assay: NCI-60 one-dose SRB screen (Breast Cancer); format: cell-based; details: Homo sapiens, single dose 10 µM, 48 h, read-out: Growth inhibition percent (GI %)
Method: as §1, §2

For `CCOC(=O)c1ccc(NC(=O)COC(=O)c2cn(-c3ccc(S(N)(=O)=O)cc3)nc2-c2ccccc2)cc1` [Compound 5a, 2-[(4-(Ethoxycarbonyl)phenyl)amino]-2-oxoethyl 3-phenyl-1-(4-sulfamoylphenyl)-1H-pyrazole-4-carboxylate], the inhibition at 10 µM [1] was 45.4%, the inhibition at 10 µM [2] was 46.6% and the inhibition at 10 µM [3] was 28.7%. For the same compound, the inhibition at 10 µM [4] was 42.7%, the inhibition at 10 µM [5] was 39.5% and the inhibition at 10 µM [6] was 5.67%. For the same compound, the inhibition at 10 µM [7] was 16.6%, the inhibition at 10 µM [8] was 62.7% and the inhibition at 10 µM [9] was 76.1%. It also gave an inhibition at 10 µM [10] of 61.6%, an inhibition at 10 µM [11] of 66.9% and an inhibition at 10 µM [12] of 25.3%. The inhibition at 10 µM [13] was 40.1%, the inhibition at 10 µM [14] was 66.5% and the inhibition at 10 µM [15] was 38.2%. The inhibition at 10 µM [16] was 19.3%, the inhibition at 10 µM [17] was 54.7% and the inhibition at 10 µM [18] was 49%. It also gave an inhibition at 10 µM [19] of 63.5%, an inhibition at 10 µM [20] of 60.3% and an inhibition at 10 µM [21] of 51.7%. For the same compound, the inhibition at 10 µM [22] was 32.4%, the inhibition at 10 µM [23] was 76.8% and the IC50 [24] was 0.39 µM and 0.395 µM. The inhibition at 10 µM [25] was 62%, the inhibition at 10 µM [26] was 64.1% and the inhibition at 10 µM [27] was 69.7%. For the same compound, the inhibition at 10 µM [28] was 81.6%, the inhibition at 10 µM [29] was 44.6% and the inhibition at 10 µM [30] was 35.8%.
